Test results as given in PubChem BioAssay (NCI).
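GI50: concentration for 50% inhibition of growth. TGI marks complete inhibition of growth.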

Legend:
Assay in all cases: growth of human tumour cells (NCI), 384-well format
[1] = test system: HOP-92 NSCLC
[2] = test system: MDA-MB-231 breast
[3] = test system: SF-295 CNS
[4] = test system: SF-268 CNS
[5] = test system: KM12 colon
[6] = test system: OVCAR-8 ovarian
[7] = test system: A498 renal
[8] = test system: SNB-75 CNS
[9] = test system: SN12C renal
[10] = test system: 786-0 renal
[11] = test system: HT29 colon
[12] = test system: HL-60(TB) leukemia
[13] = test system: CCRF-CEM leukemia
[14] = test system: M14 melanoma
[15] = test system: HCT-116 colon
[16] = test system: MALME-3M melanoma
[17] = test system: PC-3 prostate
[18] = test system: HS 578T breast
[19] = test system: DU-145 prostate
[20] = test system: COLO 205 colon
[21] = test system: OVCAR-3 ovarian
[22] = test system: LOX IMVI melanoma
[23] = test system: IGROV1 ovarian
[24] = test system: TK-10 renal
[25] = test system: SK-MEL-28 melanoma
[26] = test system: UO-31 renal
[27] = test system: MOLT-4 leukemia
[28] = test system: NCI-H322M lung
[29] = test system: UACC-257 melanoma
[30] = test system: SW-620 colon
[31] = test system: OVCAR-4 ovarian
[32] = test system: MDA-MB-468 breast
[33] = test system: RPMI-8226 leukemia
[34] = test system: SR leukemia
[35] = test system: UACC-62 melanoma
[36] = test system: SK-MEL-2 melanoma
[37] = test system: RXF 393 renal
[38] = test system: A549 NSCLC
[39] = test system: HCC-2998 colon
[40] = test system: NCI/ADR-RES ovarian
[41] = test system: HCT-15 colon
[42] = test system: EKVX NSCLC
[43] = test system: BT-549 breast
[44] = test system: OVCAR-5 ovarian
[45] = test system: SNB-19 CNS
[46] = test system: NCI-H522 lung
[47] = test system: T-47D breast

**Q.** Which results are given for `O=c1[nH]nc2c3c(cccc13)NC(CN1Cc3ccccc3C1)=N2`?
**A.** GI50 [1]: 2.5 µM; TGI [1]: 16.9 µM; GI50 [2]: 2.81 µM; TGI [2]: 14.5 µM; GI50 [3]: 10.7 µM; TGI [3]: > 100 µM; GI50 [4]: 4.68 µM; TGI [4]: 37.2 µM; GI50 [5]: 6.04 µM; TGI [5]: > 62.4 µM; GI50 [6]: 5.38 µM; TGI [6]: > 100 µM; GI50 [7]: 3.21 µM; TGI [7]: 12.4 µM; GI50 [8]: 2.32 µM; TGI [8]: 18.9 µM; GI50 [9]: 4.09 µM; TGI [9]: > 39.4 µM; GI50 [10]: 5.12 µM; TGI [10]: > 67.4 µM; GI50 [11]: 4.31 µM; TGI [11]: 26.3 µM; GI50 [12]: 12.9 µM; TGI [12]: > 100 µM; GI50 [13]: 3.91 µM; TGI [13]: 15.2 µM; GI50 [14]: 6.09 µM; TGI [14]: > 100 µM; GI50 [15]: 8.67 µM; TGI [15]: > 100 µM; GI50 [16]: 6 µM; TGI [16]: > 100 µM; GI50 [17]: 4.32 µM; TGI [17]: 57.5 µM; GI50 [18]: 5.78 µM; TGI [18]: > 100 µM; GI50 [19]: 2.96 µM; TGI [19]: 24.1 µM; GI50 [20]: 5.51 µM; TGI [20]: > 56.2 µM; GI50 [21]: 3.75 µM; TGI [21]: > 88.3 µM; GI50 [22]: 6.61 µM; TGI [22]: > 61.4 µM; GI50 [23]: 3.55 µM; TGI [23]: 70.6 µM; GI50 [24]: 2.7 µM; TGI [24]: 17.1 µM; GI50 [25]: 5.99 µM; TGI [25]: 27.6 µM; GI50 [26]: 11.4 µM; TGI [26]: > 100 µM; GI50 [27]: 2.5 µM; TGI [27]: 7.73 µM; GI50 [28]: 5.1 µM; TGI [28]: > 45.7 µM; GI50 [29]: > 100 µM; TGI [29]: > 100 µM; GI50 [30]: 8.37 µM; TGI [30]: > 100 µM; GI50 [31]: 2.14 µM; TGI [31]: 12 µM; GI50 [32]: 2.22 µM; TGI [32]: 9.99 µM; GI50 [33]: 13.8 µM; TGI [33]: > 100 µM; GI50 [34]: 2.36 µM; TGI [34]: 8.2 µM; GI50 [35]: 7.14 µM; TGI [35]: > 100 µM; GI50 [36]: > 87.1 µM; TGI [36]: > 100 µM; GI50 [37]: 2.26 µM; TGI [37]: 7.28 µM; GI50 [38]: 5.19 µM; TGI [38]: 67.5 µM; GI50 [39]: 3.34 µM; TGI [39]: 17.9 µM; GI50 [40]: 9.41 µM; TGI [40]: > 100 µM; GI50 [41]: 8.44 µM; TGI [41]: > 100 µM; GI50 [42]: 3.1 µM; TGI [42]: > 100 µM; GI50 [43]: 6.22 µM; TGI [43]: 39.7 µM; GI50 [44]: 3.89 µM; TGI [44]: 22.6 µM; GI50 [45]: 48 µM; TGI [45]: > 100 µM; GI50 [46]: 2.49 µM; TGI [46]: 7.83 µM; GI50 [47]: 22.8 µM; TGI [47]: > 100 µM
